This is an account of results in ChEMBL document CHEMBL6127127, “Structure-Guided Design of Affinity/Covalent-Bond Dual-Driven Inhibitors Targeting the AMP Site of FBPase” (J Med Chem, 2024).

The source made the active and inactive calls. The rule behind the calls is not given here.

The nature of assay [1]: Inhibition of recombinant wildtype N-terminus SYYHHHHHH-tagged human fructose 1,6-bisphosphatase extracted from Escherichia coli BL21 (DE3) cells using fructose1,6-bisphosphate as substrate assessed as NADP+ reduction to NADPH in presence of NADP+, PGI and G6PDH by spectrophotometric analysis.
The species entered for assay [2] is Homo sapiens. Put plainly: Selectivity ratio of IC50 for inhibition of N-terminus SYYHHHHHH-tagged human fructose 1,6-bisphosphatase C128S mutant extracted from Escherichia coli BL21 (DE3) cells to IC50 for inhibition of wildtype N-terminus SYYHHHHHH-tagged human fructose 1,6-bisphosphatase extracted from Escherichia coli BL21 (DE3) cells.
Assay [3] addresses Fructose-1,6-bisphosphatase 1 (Homo sapiens, UniProt P09467, C129S). Put plainly: Inhibition of N-terminus SYYHHHHHH-tagged human fructose 1,6-bisphosphatase C128S mutant extracted from Escherichia coli BL21 (DE3) cells using fructose1,6-bisphosphate as substrate assessed as NADP+ reduction to NADPH in presence of NADP+, PGI and G6PDH by spectrophotometric analysis.
The species entered for assay [4] is Homo sapiens. In words: Selectivity ratio of IC50 for inhibition of N-terminus SYYHHHHHH-tagged human fructose 1,6-bisphosphatase C179S mutant extracted from Escherichia coli BL21 (DE3) cells to IC50 for inhibition of wildtype N-terminus SYYHHHHHH-tagged human fructose 1,6-bisphosphatase extracted from Escherichia coli BL21 (DE3) cells.
Assay [5] has as its target Fructose-1,6-bisphosphatase 1 (Homo sapiens, UniProt P09467, C180S). In words: Inhibition of N-terminus SYYHHHHHH-tagged human fructose 1,6-bisphosphatase C179S mutant extracted from Escherichia coli BL21 (DE3) cells using fructose1,6-bisphosphate as substrate assessed as NADP+ reduction to NADPH in presence of NADP+, PGI and G6PDH by spectrophotometric analysis.
The species entered for assay [6] is Homo sapiens. In words: Inhibition of recombinant N-terminus SYYHHHHHH-tagged human fructose 1,6-bisphosphatase extracted from Escherichia coli BL21 (DE3) cells using fructose1,6-bisphosphate as substrate assessed as Kinact to Ki ratio incubated for 12 to 40 mins in presence of NADP+, PGI and G6PDH by spectrophotometric analysis. The conditions noted are these: time 12-40 min.

Assay [7] can be described thus: Inhibition of recombinant N-terminus SYYHHHHHH-tagged human fructose 1,6-bisphosphatase extracted from Escherichia coli BL21 (DE3) cells using fructose1,6-bisphosphate as substrate assessed as inhibition constant incubated for 12 to 40 mins in presence of NADP+, PGI and G6PDH by spectrophotometric analysis.
For assay [8], the species on record is Homo sapiens. Put plainly: Inhibition of recombinant N-terminus SYYHHHHHH-tagged human fructose 1,6-bisphosphatase extracted from Escherichia coli BL21 (DE3) cells using fructose1,6-bisphosphate as substrate assessed as inactivation rate constant incubated for 12 to 40 mins in presence of NADP+, PGI and G6PDH by spectrophotometric analysis. The conditions noted are these: time 12-40 min.

For a further assay, the system named is Mus musculus. In words: Antidiabetic activity in db/db mouse model assessed as reduction in blood glucose level at 250 mg/kg, ip preadministered with compound for 8 hrs followed by free feeding and measured after 16 hrs by glucometer. Type of assay: functional, organism-based. The conditions noted are these: time 24.0 hrs.

Chain of Fructose-1,6-bisphosphatase 1 (Homo sapiens, UniProt P09467, C180S) (P09467 2-338 C180S limits assumed): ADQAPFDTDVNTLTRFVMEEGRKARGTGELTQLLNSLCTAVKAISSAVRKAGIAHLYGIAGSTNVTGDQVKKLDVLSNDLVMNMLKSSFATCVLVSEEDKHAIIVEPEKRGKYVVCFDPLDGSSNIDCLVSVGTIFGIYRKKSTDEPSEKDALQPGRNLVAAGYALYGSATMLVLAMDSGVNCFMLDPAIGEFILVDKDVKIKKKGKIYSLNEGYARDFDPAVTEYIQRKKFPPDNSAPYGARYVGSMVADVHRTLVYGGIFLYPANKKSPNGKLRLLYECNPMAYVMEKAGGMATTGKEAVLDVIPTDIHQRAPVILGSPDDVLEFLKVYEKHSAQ
Chain of Fructose-1,6-bisphosphatase 1 (Homo sapiens, UniProt P09467, C129S) (P09467 2-338 C129S limits assumed): as the sequence (P09467 2-338 C180S limits assumed) above, with C128S, S179C counted along it

In the case of `C/C=C/C(=O)NCCc1ccc(S(=O)(=O)NC(=O)Nc2cccc(Br)c2)cc1`, the IC50 in [1] is greater than 500 µM.
As for `C#CCNC(=O)c1ccc(S(=O)(=O)NC(=O)Nc2cccc(Br)c2)cc1`, the IC50 in assay [1] is 39.8 µM.
For the compound `C#Cc1ccc(NC(=O)c2ccc(S(=O)(=O)NC(=O)Nc3cccc(Br)c3)cc2)cc1`, the IC50 in [1] was greater than 500 µM.
In the case of `O=C(CBr)NCCc1ccc(S(=O)(=O)NC(=O)Nc2ccc3c(c2)OCO3)cc1`, the IC50 in assay [1] was determined as 2.7 µM.
As for `C=CC(=O)NCCc1ccc(S(=O)(=O)NC(=O)Nc2cccc(Br)c2)cc1`, the IC50 in assay [1] is greater than 500 µM.
Same read-out and setting: in the case of `O=C(CBr)NCCc1ccc(S(=O)(=O)NC(=O)Nc2ccc([N+](=O)[O-])cc2)cc1` it was 19.3 µM.
Still for that read-out and setting: then `Cc1ccc(NC(=O)NS(=O)(=O)c2ccc(CCNC(=O)CBr)cc2)cc1`, with 7.48 µM.
For the compound `O=C(Nc1cccc(Br)c1)NS(=O)(=O)c1ccc(NC(=O)c2ccc(Cl)nc2)cc1`, the figures for the Ratio IC50 in the assay listed under Homo sapiens [2] and in the assay filed under Homo sapiens [4] were 20 and 2.2, respectively. The IC50 in assay [3] amounted to 71.8 µM; in assay [5], 7.83 µM; in assay [1], 3.55 µM.
As to `O=C(CBr)NCCc1ccc(S(=O)(=O)NC(=O)Nc2cccc(Br)c2)cc1`, the Ratio IC50 in the assay listed under Homo sapiens [2] came to 2.3; in the assay listed under Homo sapiens [4] it was 59. For the same compound, in the assay filed under Homo sapiens [6], the Ratio is 240 M⁻¹ s⁻¹. The inhibitory constant (Ki) in assay [7] is 7.13 µM. The Kinact in the assay listed under Homo sapiens [8] was found to be 0.002 s⁻¹. Further, the IC50 was 4.7 µM in assay [3], 122 µM in assay [5] and 2.06 µM in [1].
For `O=C(CBr)NCc1ccc(S(=O)(=O)NC(=O)Nc2cccc(Br)c2)cc1`, the 50% inhibitory concentration (IC50) in assay [1] came to 4.51 µM.
Same read-out and setting: in the case of `CCc1ccc(NC(=O)NS(=O)(=O)c2ccc(CCNC(=O)CBr)cc2)cc1` it was 2.75 µM.
In the case of `COc1ccc(NC(=O)NS(=O)(=O)c2ccc(CCNC(=O)CBr)cc2)cc1`, in assay [1], the IC50 turned out to be 4.54 µM.
For the compound `N#Cc1ccc(C(=O)Nc2ccc(S(=O)(=O)NC(=O)Nc3cccc(Br)c3)cc2)cc1`, the IC50 in assay [1] was 14.8 µM.
For `CN(C)C(=N)NC(=N)N`, the result in the assay on Mus musculus was inactive.
Consider `C#Cc1cccc(NC(=O)NS(=O)(=O)c2ccc(CCNC(=O)CBr)cc2)c1`, for which the concentration for half-maximal inhibition (IC50) in [1] amounted to 2.93 µM.
In the case of `O=C(Nc1cccc(Br)c1)NS(=O)(=O)c1ccc(NC(=O)c2ccc(F)cc2)cc1`, in assay [1], the IC50 stood at 81.8 µM.
Consider `O=C(CCl)NCCc1ccc(S(=O)(=O)NC(=O)Nc2cccc(Br)c2)cc1`, for which, in [1], the IC50 amounted to 36.2 µM.

The term IC50 denotes the concentration at which inhibition is half-maximal. One may read the Ki as the equilibrium dissociation constant of an inhibitor or competing ligand from its target.
